Measurements as given in patent publication US9695155B2, “Herbicidal substituted pyrimidinyloxy benzene compounds” (E. I. DU PONT DE NEMOURS AND COMPANY, priority 2013, dated 2017).

Assays:
[1] = system: barnyardgrass; test: Test A postemergence; format: in vivo, Echinochloa crus-galli
Outline: (§1)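 Pre- and postemergence greenhouse screen. Soil: loam + sand. Spray carrier: solvent mixture, non-phytotoxic, with surfactant. Post timing at 1–2 leaves, height 2–10 cm. Readout: visual injury on a 0–100 scale roughly 10 days after application, untreated plants as reference.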

[2] = system: Heteranthera limosa; test: Test B flooded paddy test; format: in vivo; conditions: Flood, 250 g ai/ha; 0 to 100 scale where 0 is no effect and 100 is complete control
Outline: (§2)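 Plants were grown to the 2-leaf stage, then pots were flooded to 3 cm above the soil and compounds were applied directly into the paddy water. That depth was held throughout, and after 13 to 15 days in the greenhouse injury was rated visually against controls on a 0–100 scale (0 no effect, 100 complete control).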

[3] = system: wheat; test: Test A postemergence; format: in vivo, Triticum aestivum
Outline: as §1

[4] = system: morningglory; test: Test A postemergence; format: in vivo, Ipomoea spp.
Outline: as §1

[5] = system: rice; test: Test C flooded paddy test; format: in vivo, Oryza sativa; conditions: Flood, scale 0 to 100 (0 no effect, 100 complete control), 13 to 15 days
From the text: (§3) At time of treatment, test pots were flooded to 3 cm above the soil surface, treated by application of test compounds directly to the paddy water, and then maintained at that water depth for the duration of the test. Treated plants and controls were maintained in a greenhouse for 13 to 15 days, after which time all species were compared to controls and visually evaluated. […] A dash (-) response means no test result.

[6] = system: ducksalad; test: Test C flooded paddy test; format: in vivo, Heteranthera limosa; conditions: Flood, scale 0 to 100 (0 no effect, 100 complete control), 13 to 15 days
From the text: as §3

[7] = system: large (Lg) crabgrass; test: Test A postemergence; format: in vivo, Digitaria sanguinalis
Outline: as §1

[8] = system: large (Lg) crabgrass; test: Test A preemergence; format: in vivo, Digitaria sanguinalis
Outline: as §1

[9] = system: barnyardgrass; test: Test B flooded paddy test; format: in vivo, Echinochloa crus-galli; conditions: Flood, 250 g ai/ha; 0 to 100 scale where 0 is no effect and 100 is complete control
Outline: as §2

[10] = system: sedge, umbrella; test: Test B flooded paddy test; format: in vivo, Cyperus difformis; conditions: Flood, 250 g ai/ha; 0 to 100 scale where 0 is no effect and 100 is complete control
Outline: as §2

[11] = system: corn; test: Test A preemergence; format: in vivo, Zea mays
Outline: as §1

[12] = system: giant foxtail; test: Test A postemergence; format: in vivo, Setaria faberii
Outline: as §1

[13] = system: sedge, umbrella; test: Test C flooded paddy test; format: in vivo, Cyperus difformis; conditions: Flood, scale 0 to 100 (0 no effect, 100 complete control), 13 to 15 days
From the text: as §3

[14] = system: barnyardgrass; test: Test C flooded paddy test; format: in vivo, Echinochloa crus-galli; conditions: Flood, scale 0 to 100 (0 no effect, 100 complete control), 13 to 15 days
From the text: as §3

[15] = system: barnyardgrass; test: Test A preemergence; format: in vivo, Echinochloa crus-galli
Outline: as §1

[16] = system: rice; test: Test B flooded paddy test; format: in vivo, Oryza sativa; conditions: Flood, 250 g ai/ha; 0 to 100 scale where 0 is no effect and 100 is complete control
Outline: as §2

[17] = system: giant foxtail; test: Test A preemergence; format: in vivo, Setaria faberii
Outline: as §1

[18] = system: pigweed; test: Test A preemergence; format: in vivo, Amaranthus retroflexus
Outline: as §1

[19] = system: wheat; test: Test A preemergence; format: in vivo, Triticum aestivum
Outline: as §1

[20] = system: pigweed; test: Test A postemergence; format: in vivo, Amaranthus retroflexus
Outline: as §1

[21] = system: velvetleaf; test: Test A preemergence; format: in vivo, Abutilon theophrasti
Outline: as §1

[22] = system: velvetleaf; test: Test A postemergence; format: in vivo, Abutilon theophrasti
Outline: as §1

[23] = system: corn; test: Test A postemergence; format: in vivo, Zea mays
Outline: as §1

[24] = 125 g ai/ha, 0 to 100 scale where 0 is no effect and 100 is complete control
[25] = 500 g ai/ha, 0 to 100 scale, 0 no effect, 100 complete control
[26] = 500 g ai/ha, 0 to 100 scale, 0 no effect, 100 complete control, approx. 10 days

Clc1cnc(Oc2ccccc2-n2cnc(Br)c2)nc1 [Compound 34] was tested, and the “Plant response rating, Barnyardgrass” value [1, 24] was 20, the “Plant response rating, Barnyardgrass” value [1, 25] was 50 and the “Plant response rating, Ducksalad” value [2] was 90. For the same molecule, the “Plant response rating, Wheat” value [3, 24] was 0, the “Plant response rating, Wheat” value [3, 25] was 20 and the “Plant response rating, Morningglory” value [4, 24] was 60. For the same molecule, the “Plant response rating, Morningglory” value [4, 25] was 80, the “Plant response rating, Rice” value ([5]; 31 g ai/ha) was 0 and the “Plant response rating, Rice” value ([5]; 62 g ai/ha) was 0. The “Plant response rating, Rice” value ([5]; 125 g ai/ha) was 0, the “Plant response rating, Rice” value ([5]; 250 g ai/ha) was 0 and the “Plant response rating, Ducksalad” value ([6]; 31 g ai/ha) was 0. For the same molecule, the “Plant response rating, Ducksalad” value ([6]; 62 g ai/ha) was 0, the “Plant response rating, Ducksalad” value ([6]; 125 g ai/ha) was 20 and the “Plant response rating, Ducksalad” value ([6]; 250 g ai/ha) was 75. For the same molecule, the “Plant response rating, Crabgrass, Large” value [7, 24] was 50, the “Plant response rating, Crabgrass, Large” value [7, 25] was 60 and the “Plant response rating, Crabgrass, Large” value [8, 24] was 70. For the same molecule, the “Crabgrass, Large plant response rating” value [8, 26] was 90, the “Plant response rating, Barnyardgrass” value [9] was 20 and the “Plant response rating, Sedge, Umbrella” value [10] was 90. The “Plant response rating, Corn” value [11, 24] was 0, the “Corn plant response rating” value [11, 26] was 0 and the “Plant response rating, Foxtail, Giant” value [12, 24] was 30. For the same molecule, the “Plant response rating, Foxtail, Giant” value [12, 25] was 70, the “Plant response rating, Sedge, Umbrella” value ([13]; 31 g ai/ha) was 0 and the “Plant response rating, Sedge, Umbrella” value ([13]; 62 g ai/ha) was 0. For the same molecule, the “Plant response rating, Sedge, Umbrella” value ([13]; 125 g ai/ha) was 0, the “Plant response rating, Sedge, Umbrella” value ([13]; 250 g ai/ha) was 70 and the “Plant response rating, Barnyardgrass” value ([14]; 31 g ai/ha) was 0. For the same molecule, the “Plant response rating, Barnyardgrass” value ([14]; 62 g ai/ha) was 0, the “Plant response rating, Barnyardgrass” value ([14]; 125 g ai/ha) was 0 and the “Plant response rating, Barnyardgrass” value ([14]; 250 g ai/ha) was 10. For the same molecule, the “Plant response rating, Barnyardgrass” value [15, 24] was 0, the “Barnyardgrass plant response rating” value [15, 26] was 50 and the “Plant response rating, Rice” value [16] was 30. The “Plant response rating, Foxtail, Giant” value [17, 24] was 30, the “Foxtail, Giant plant response rating” value [17, 26] was 100 and the “Plant response rating, Pigweed” value [18, 24] was 80. The “Pigweed plant response rating” value [18, 26] was 100, the “Plant response rating, Wheat” value [19, 24] was 0 and the “Wheat plant response rating” value [19, 26] was 0. The “Plant response rating, Pigweed” value [20, 24] was 90, the “Plant response rating, Pigweed” value [20, 25] was 100 and the “Plant response rating, Velvetleaf” value [21, 24] was 60. For the same molecule, the “Velvetleaf plant response rating” value [21, 26] was 80, the “Plant response rating, Velvetleaf” value [22, 24] was 80 and the “Plant response rating, Velvetleaf” value [22, 25] was 100. For the same molecule, the “Plant response rating, Corn” value [23, 24] was 10 and the “Plant response rating, Corn” value [23, 25] was 20.
